This test relates to sAPPβ release, SH-SY5Y cells. Nature of the test: sAPPβ release assay. Type of test: cell-based. The note with it: compounds incubated 17 h, MSD detection. The method, then: Thaw cells and seed at a conc. of around 10000 cells/well in DMEM/F-12 with Glutamax, 10% FCS and 1% non-essential amino acids to a 384-well tissue culture treated plate, 100 μL cell susp/well. […] The cell medium was removed, followed by addition of 30 μL compound diluted in DMEM/F-12 with Glutamax, 10% FCS, 1% non-essential amino acids and 1% PeSt to a final conc. of 1% DMSO. The compounds were incubated with the cells for 17 h (overnight) at 37° C., 5% CO2. Meso Scale Discovery (MSD) plates were used for the detection of sAPPβ release. MSD sAPPβ plates were blocked in 1% BSA in Tris wash buffer (40 μL/well) for 1 h on shake at r.t. and washed 1 time in Tris wash buffer (40 μL/well). 20 μL of medium was transferred to the pre-blocked and washed MSD sAPPβ microplates, and the cell plates were further used in an ATP assay to measure cytotoxicity. The MSD plates were incubated with shaking at r.t. for 2 h and the media discarded. 10 μL detection antibody was added (1 nM) per well followed by incubation with shaking at r.t. for 2 h and then discarded. 40 μL Read Buffer was added per well and the plates were read in a SECTOR Imager.

`CC1=NC2(CC(C3CCOC(C)(C)C3)Oc3ccc(-c4cccc(Cl)c4)cc32)N=C1N` (racemic) [Example 50 Isomeric mixture 2, 6-(3-Chlorophenyl)-2-(2,2-dimethyltetrahydro-2H-pyran-4-yl)-5′-methylspiro[chroman-4,2′-imidazol]-4′-amine] displayed an IC50 of 17 nM. The value for `CC1=NC2(CC3(CCCOC3)Oc3ccc(-c4ccc(F)c(Cl)c4)cc32)N=C1N` (single isomer, unassigned) [Example 46b Isomer 1, 6′-(3-Chloro-4-fluorophenyl)-5-methyl-5″,6″-dihydro-4′H-dispiro[imidazole-2,4′-chromene-2′,3″-pyran]-4-amine] was 426 nM.

Usually IC50 stands for the midpoint of a concentration-inhibition curve. Low values mean inhibition by little substance, high ones a need for much substance.
